What was measured:
Format in all cases: in vivo
[1] = tested on: Echinochloa crus-galli (ECHCG); assay: Pre-emergence herbicidal activity; details: pre-emergence application, 1000 g/Ha, evaluated after 13 days, scale 0-5
Method in brief: (§1)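 Seeds sown in standard soil, sprayed one day after sowing with active ingredient formulated in acetone/water (50:50) with 0.5% Tween 20. Glasshouse at 24/16 °C day/night, 14 h light, 65% humidity, watered twice daily; damage scored after 13 days on a 0–5 scale (5 = total damage).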

[2] = tested on: Triticum aestivium (TRZAW); assay: Pre-emergence herbicidal activity; details: pre-emergence application, 1000 g/Ha, evaluated after 13 days, scale 0-5
Method in brief: as §1

Avena fatua (AVEFA) [3] = assay: Pre-emergence herbicidal activity; details: pre-emergence application, 1000 g/Ha, evaluated after 13 days, scale 0-5
Method in brief: as §1

[4] = tested on: Alopecurus myosuroides (ALOMY); assay: Pre-emergence herbicidal activity; details: pre-emergence application, 1000 g/Ha, evaluated after 13 days, scale 0-5
Method in brief: as §1

Lolium perenne (LOLPE) [5] = assay: Pre-emergence herbicidal activity; details: pre-emergence application, 1000 g/Ha, evaluated after 13 days, scale 0-5
Method in brief: as §1

Oryza sativa (ORYSA) [6] = assay: Pre-emergence herbicidal activity; details: pre-emergence application, 1000 g/Ha, evaluated after 13 days, scale 0-5
Method in brief: as §1

[7] = tested on: Echinochloa crus-galli (ECHCG); assay: Post-emergence herbicidal activity; details: post-emergence application, 1000 g/Ha, evaluated after 13 days, scale 0-5
Method in brief: (§2)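 Visual injury rating (0 = unaffected, 5 = totally damaged) taken 13 days post-treatment. Treatment: spray of acetone/water (50:50), 0.5% Tween 20 formulation applied to plants 8 days after sowing, with glasshouse conditions of 24/16 °C and 65% humidity throughout.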

[8] = tested on: Triticum aestivium (TRZAW); assay: Post-emergence herbicidal activity; details: post-emergence application, 1000 g/Ha, evaluated after 13 days, scale 0-5
Method in brief: as §2

Avena fatua (AVEFA) [9] = assay: Post-emergence herbicidal activity; details: post-emergence application, 1000 g/Ha, evaluated after 13 days, scale 0-5
Method in brief: as §2

[10] = tested on: Alopecurus myosuroides (ALOMY); assay: Post-emergence herbicidal activity; details: post-emergence application, 1000 g/Ha, evaluated after 13 days, scale 0-5
Method in brief: as §2

Lolium perenne (LOLPE) [11] = assay: Post-emergence herbicidal activity; details: post-emergence application, 1000 g/Ha, evaluated after 13 days, scale 0-5
Method in brief: as §2

Oryza sativa (ORYSA) [12] = assay: Post-emergence herbicidal activity; details: post-emergence application, 1000 g/Ha, evaluated after 13 days, scale 0-5
Method in brief: as §2

[13] = tested on: Amaranthus retroflexus (AMARE); assay: Pre-emergence herbicidal activity; details: pre-emergence application, 1000 g/Ha, evaluated after 13 days, scale 0-5
Method in brief: as §1

[14] = tested on: Abutilon theophrasti (ABUTH); assay: Pre-emergence herbicidal activity; details: pre-emergence application, 1000 g/Ha, evaluated after 13 days, scale 0-5
Method in brief: as §1

Zea Mays (ZEAMX) [15] = assay: Pre-emergence herbicidal activity; details: pre-emergence application, 1000 g/Ha, evaluated after 13 days, scale 0-5
Method in brief: as §1

Setaria faberi (SETFA) [16] = assay: Pre-emergence herbicidal activity; details: pre-emergence application, 1000 g/Ha, evaluated after 13 days, scale 0-5
Method in brief: as §1

[17] = tested on: Amaranthus retroflexus (AMARE); assay: Post-emergence herbicidal activity; details: post-emergence application, 1000 g/Ha, evaluated after 13 days, scale 0-5
Method in brief: as §2

[18] = tested on: Abutilon theophrasti (ABUTH); assay: Post-emergence herbicidal activity; details: post-emergence application, 1000 g/Ha, evaluated after 13 days, scale 0-5
Method in brief: as §2

Zea Mays (ZEAMX) [19] = assay: Post-emergence herbicidal activity; details: post-emergence application, 1000 g/Ha, evaluated after 13 days, scale 0-5
Method in brief: as §2

Setaria faberi (SETFA) [20] = assay: Post-emergence herbicidal activity; details: post-emergence application, 1000 g/Ha, evaluated after 13 days, scale 0-5
Method in brief: as §2

Compound | Control of weed species, ECHCG (damage score) ([1]; Table 5) | Control of weed species, TRZAW (damage score) [2] | Control of weed species, AVEFA (damage score) (Avena fatua (AVEFA) [3]) | Control of weed species, ALOMY (damage score) [4] | Control of weed species, LOLPE (damage score) (Lolium perenne (LOLPE) [5]; Table 5) | Control of weed species, ORYSA (damage score) (Oryza sativa (ORYSA) [6]) | Control of weed species, ECHCG (damage score) ([7]; Table 7) | Control of weed species, TRZAW (damage score) [8] | Control of weed species, ECHCG (damage score) ([1]; Table 6) | Control of weed species, AMARE (damage score) [13] | Control of weed species, ABUTH (damage score) [14] | Control of weed species, ZEAMX (damage score) (Zea Mays (ZEAMX) [15]) | Control of weed species, LOLPE (damage score) (Lolium perenne (LOLPE) [5]; Table 6) | Control of weed species, SETFA (damage score) (Setaria faberi (SETFA) [16]) | Control of weed species, ECHCG (damage score) ([7]; Table 8) | Control of weed species, AMARE (damage score) [17] | Control of weed species, ABUTH (damage score) [18] | Control of weed species, ZEAMX (damage score) (Zea Mays (ZEAMX) [19]) | Control of weed species, LOLPE (damage score) (Lolium perenne (LOLPE) [11]; Table 8) | Control of weed species, SETFA (damage score) (Setaria faberi (SETFA) [20]) | also measured
CN(C(=O)OC(C)(C)C)c1sc(-c2cncc(F)c2)nc1I [Compound A52] | 2 | 0 | 3 | 0 | 3 | 1 | 4 | 1 |  |  |  |  |  |  |  |  |  |  |  |  | Control of weed species, AVEFA (damage score) (Avena fatua (AVEFA) [9]): 4; Control of weed species, ALOMY (damage score) [10]: 1; Control of weed species, LOLPE (damage score) (Lolium perenne (LOLPE) [11]; Table 7): 3; Control of weed species, ORYSA (damage score) (Oryza sativa (ORYSA) [12]): 0
Cc1nc(-c2cc(F)c[n+]([O-])c2)sc1N(C)C(=O)OC(C)(C)C [Compound A62, tert-butyl N-[2-(5-fluoro-3-pyridyl N-oxide)-4-methyl-thiazol-5-yl]-N-methyl-carbamate] | 3 | 1 | 2 | 2 | 2 | 1 | 4 | 1 |  |  |  |  |  |  |  |  |  |  |  |  | Control of weed species, AVEFA (damage score) (Avena fatua (AVEFA) [9]): 4; Control of weed species, ALOMY (damage score) [10]: 1; Control of weed species, LOLPE (damage score) (Lolium perenne (LOLPE) [11]; Table 7): 4; Control of weed species, ORYSA (damage score) (Oryza sativa (ORYSA) [12]): 0
C#CCOC(=O)N(C)c1sc(-c2cccnc2)nc1C [Compound B1, prop-2-ynyl N-methyl-N-[4-methyl-2-(3-pyridyl)thiazol-5-yl]carbamate] |  |  |  |  |  |  |  |  | 2 | 2 | 2 | 5 | 3 | 5 | 4 | 1 | 1 | 5 | 3 | 5 | 
C#CC(C)OC(=O)N(C)c1sc(-c2cccnc2)nc1C (stereo not drawn) [Compound B2, 1-methylprop-2-ynyl N-methyl-N-[4-methyl-2-(3-pyridyl)thiazol-5-yl]carbamate] |  |  |  |  |  |  |  |  | 1 | 3 | 3 | 5 | 3 | 5 | 2 | 2 | 2 | 4 | 4 | 5 | 
C#CC(C)(C)OC(=O)N(C)c1sc(-c2cccnc2)nc1C [Compound B3, 1,1-dimethylprop-2-ynyl N-methyl-N-[4-methyl-2-(3-pyridyl)thiazol-5-yl]carbamate] |  |  |  |  |  |  |  |  | 3 | 3 | 4 | 5 | 3 | 4 | 4 | 2 | 1 | 5 | 4 | 5 | 

— patent US11470846B2, “Herbicidal pyridino-/pyrimidino-thiazoles” (SYNGENTA PARTICIPATIONS AG, priority 2014, dated 2022)
